PMC12770603 (Scientific Reports, 2025)

Tested on: EstN3
Assay: p-nitrophenol release at […] nm, Michaelis-Menten non-linear fit
Type: biochemical, uncultured bacterium
Details: pH 7.0, 37 °C, 15 min

`CCCCC(=O)Oc1ccc([N+](=O)[O-])cc1` [pNP-valerate] was tested, and the Km was 1520 µM.
